Results as given in patent US20160128339A1, “CHROMOBACTERIUM FORMULATIONS, COMPOSITIONS, METABLOITES AND THEIR USES” (priority 2011, published 2016).

Legend:
TSSM = TSSM control on field strawberry transplants; format: in vivo, Tetranychus urticae; conditions: rate/acre: abamectin 16 fl. oz., bifenzate 1 lb + INDUCE, COHERE 16 fl. oz., spiromesifin 12 fl. oz. + INDUCE, fenpyroximate 32 fl. oz., hexythiazox 6 oz.; for Number of eggs TSSM/leaflet day 90 / Number of motile TSSM/leaflet day 90: before first spray
Procedure: The efficacy of five traditional compounds and MBI-203 ingredients were evaluated for TSSM control on field strawberry transplants at the Florida Gulf Coast Research and Education Center. Seedlings were transplanted in the Field (day 0), Each 12.5-ft. plot consisted of 20 plants. Plots were infested four times from day 55 through day 71 with 10 to 20 motile TSSM per plant. Seventeen treatments of various rates and schedules of application of miticides, some combined with an adjuvant, and a non-treated check were replicated four times in a RCB design. Treatments were applied using a hand held sprayer with a spray wand outfitted with a nozzle containing a 45-degree core and a number four disc. The sprayer was pressurized by CO2, to 40 psi, and calibrated to deliver 100 gal per acre. Samples were collected weekly from day 90 before first spray through 2 wks after the last application of treatments (day 154). Samples consisted of ten randomly selected leaflets per plot and were collected from the middle one-third stratum of the plants. Motile and egg TSSM were brushed from the leaflets onto rotating sticky discs and counted. No phytotoxicity was observed.

[1] = tested on: green peach aphid (GPA) adults; assay: Green peach aphid progeny production on treated pepper leaf discs; format: in vivo, Myzus persicae; conditions: 1.0 μg/mL in acetone, 100 μL per leaf disc; 3 days
Procedure: MBI-203 at 3% v/v concentration was tested to determine the effect of the compound on the progeny production of green peach aphid (GPA) adults. Bioassays were performed by iteming pepper leaf discs with MBI-203 at 3% v/v. Pepper leaf discs (from 3-4 week old pepper plants) were cut in circles using a 23 mm cookie cutter, selecting a flat portion of tbe leaf to make sure the disc can be evenly laid flat on the agar plate. A 1% agar solution was melted by heating and 30 μL, poured in each petri plate (16 mm×35 mm vented, polystyrene petri plates), just enough to cover the bottom of the plate to prop leaf discs and maintain humidity. The agar was allowed to solidify by cooling at room temperature. Leaf disc treatment was performed by pouring the treatment solution into a glass petri dish. With the solution in the dish, leaf discs were treated by soaking, gently swirling the dish to completely soak and coat the leaf discs. Treatment of leaf discs by soaking was done for 1 minute. […] Progeny (early nymphal instars) were counted 3 days after adult exposure to treated leaf discs. […]
Two concentrations of pare violacein compound in acetone, 0.5 μg/mL and 1.0 μg/mL were used in the test to determine the effect of the compound on the progeny production of green peach aphid (GPA) adults. […] Progeny (early nymphal instars) were counted 3 days after adult exposure to treated leaf discs. […]

[2] = tested on: Green Peach Aphid adults (GPA); assay: Green peach aphid choice repellency bioassay of extracts, fractions and pure compound; format: in vivo, Myzus persicae; conditions: violacein purified from F9 and F10
Procedure: Choice bioassays on Green Peach Aphid adults (GPA) were done using MBI-203 fractions and pure compound. Fractions and pure compound (violacein) obtained from the extraction of cell paste of C. substugae (MBI-203) were tested for insect efficacy through repellency bioassays. Pepper leaf discs (from 3-4 week old pepper plants) were cut in circles using a 23 mm cookie cutter, selecting a flat portion of the leaf to make sure the leaf disc can be evenly laid flat into the agar plate after treatment of the compound. One percent (%) agar in water was prepared. The 1% agar solution was melted by heating and poured into the 145 mm×20 mm petri plate, enough to cover the bottom surface of the plate to prop leaf discs and maintain humidity. The agar was allowed to solidify by cooling at room temperature.
Leaf disc treatment was done by pipetting gently 100 μL of MBI-203 extract unto the underside of the leaf disc. Treated leaf discs were then allowed to dry off by laying the disc flat unto a labeled 12-well plate cover. […]
All tests were done in three replications. […] Data for repellency of adults and nymphs was determined 24 hours post exposure of adults on treated leaf discs. The number of aphids (adults and nymphs) was counted and data recorded and analyzed, The percent repellency was computed as: % Repellency=100-{([N+A]“on petri dish”)/[N+A]“on petri dish” X100}, […]

M. hapla nematodes = assay: In vitro 96-well nematode immobility bioassay; format: in vivo; conditions: M. hapla J2; 100 μl of 4 mg/ml sample; 24 hour at 25° C.
Procedure: The fractions and pure compounds were dissolved in Dimethylsulfoxide (DMSO) and were tested in an in vitro 96-well plastic cell-culture plate bioassay. Around 15-20 nematodes in a 50 μl water solution were exposed to 100 μl of a 4 mg/ml of sample for a 24 hour period at 25° C. Once the incubation period was completed, results were recorded based on a visual grading of immobility of the juvenile nematodes (J2°s) in each well treated with sampler; each treatment was tested in well repetitions of four. […] Three controls were included in each trial; 1 positive (1% Avid) & 2 negative (DMSO & water). Both trials (T1) and (T2) were carried out using M. hapla nematodes.

## COc1ccc(-c2ccccc2)cc1NNC(=O)OC(C)C [Bifenzate]
TSSM
  Number of eggs TSSM/leaflet day 90: 3.8
  Number of motile TSSM/leaflet day 90: 3.8
  Number of eggs TSSM/leaflet day 98: 6.0
  Number of eggs TSSM/leaflet day 105: 6.0
  Number of eggs TSSM/leaflet day 111: 0.8
  Number of eggs TSSM/leaflet day 118: 8.3
  Number of eggs TSSM/leaflet day 125: 20.5
  Number of eggs TSSM/leaflet day 132: 3.01
  Number of eggs TSSM/leaflet day 139: 28.0
  Number of eggs TSSM/leaflet day 146: 66.5
  Number of eggs TSSM/leaflet day 154: 128.3
  Number of motile TSSM/leaflet day 98: 6.0
  Number of motile TSSM/leaflet day 105: 6.0
  Number of motile TSSM/leaflet day 111: 0.8
  Number of motile TSSM/leaflet day 118: 8.3
  Number of motile TSSM/leaflet day 125: 20.5
  Number of motile TSSM/leaflet day 132: 3.0
  Number of motile TSSM/leaflet day 139: 28.0
  Number of motile TSSM/leaflet day 146: 66.5
  Number of motile TSSM/leaflet day 154: 128.3

## Cc1nn(C)c(Oc2ccccc2)c1C=NOCc1ccc(C(=O)OC(C)(C)C)cc1 [Fenpyroximate]
TSSM
  Number of eggs TSSM/leaflet day 90: 9.3
  Number of motile TSSM/leaflet day 90: 4.5
  Number of eggs TSSM/leaflet day 98: 11.8
  Number of eggs TSSM/leaflet day 105: 12.3
  Number of eggs TSSM/leaflet day 111: 12.5
  Number of eggs TSSM/leaflet day 118: 1.0
  Number of eggs TSSM/leaflet day 125: 34.5
  Number of eggs TSSM/leaflet day 132: 20.8
  Number of eggs TSSM/leaflet day 139: 28.5
  Number of eggs TSSM/leaflet day 146: 97.3
  Number of eggs TSSM/leaflet day 154: 240.8
  Number of motile TSSM/leaflet day 98: 3.8
  Number of motile TSSM/leaflet day 105: 6.5
  Number of motile TSSM/leaflet day 111: 2.8
  Number of motile TSSM/leaflet day 118: 2.0
  Number of motile TSSM/leaflet day 125: 7.3
  Number of motile TSSM/leaflet day 132: 5.3
  Number of motile TSSM/leaflet day 139: 10.0
  Number of motile TSSM/leaflet day 146: 34.3
  Number of motile TSSM/leaflet day 154: 145.3

## C[C@@H]1[C@@H](c2ccc(Cl)cc2)SC(=O)N1C(=O)NC1CCCCC1 [Hexythiazox]
TSSM
  Number of eggs TSSM/leaflet day 90: 2.0
  Number of motile TSSM/leaflet day 90: 2.0
  Number of eggs TSSM/leaflet day 98: 8.5
  Number of eggs TSSM/leaflet day 105: 15.0
  Number of eggs TSSM/leaflet day 111: 17.0
  Number of eggs TSSM/leaflet day 118: 22.0
  Number of eggs TSSM/leaflet day 125: 71.5
  Number of eggs TSSM/leaflet day 132: 128.5
  Number of eggs TSSM/leaflet day 139: 281.5
  Number of eggs TSSM/leaflet day 146: 393.5
  Number of eggs TSSM/leaflet day 154: 533.0
  Number of motile TSSM/leaflet day 98: 1.8
  Number of motile TSSM/leaflet day 105: 2.8
  Number of motile TSSM/leaflet day 111: 6.0
  Number of motile TSSM/leaflet day 118: 13.8
  Number of motile TSSM/leaflet day 125: 23.0
  Number of motile TSSM/leaflet day 132: 57.5
  Number of motile TSSM/leaflet day 139: 103.3
  Number of motile TSSM/leaflet day 146: 196.0
  Number of motile TSSM/leaflet day 154: 285.5

## Cc1cc(C)c(C2=C(OC(=O)CC(C)(C)C)C3(CCCC3)OC2=O)c(C)c1 [Spiromesifin]
TSSM
  Number of eggs TSSM/leaflet day 90: 7.3
  Number of motile TSSM/leaflet day 90: 2.8
  Number of eggs TSSM/leaflet day 98: 5.3
  Number of eggs TSSM/leaflet day 105: 7.3
  Number of eggs TSSM/leaflet day 111: 5.0
  Number of eggs TSSM/leaflet day 118: 1.5
  Number of eggs TSSM/leaflet day 125: 2.3
  Number of eggs TSSM/leaflet day 132: 2.8
  Number of eggs TSSM/leaflet day 139: 0.8
  Number of eggs TSSM/leaflet day 146: 4.5
  Number of eggs TSSM/leaflet day 154: 25.5
  Number of motile TSSM/leaflet day 98: 2.3
  Number of motile TSSM/leaflet day 105: 2.0
  Number of motile TSSM/leaflet day 111: 2.3
  Number of motile TSSM/leaflet day 118: 0.5
  Number of motile TSSM/leaflet day 125: 0.8
  Number of motile TSSM/leaflet day 132: 0.5
  Number of motile TSSM/leaflet day 139: 2.5
  Number of motile TSSM/leaflet day 146: 2.8
  Number of motile TSSM/leaflet day 154: 6.0

## O=C1NC(c2c[nH]c3ccc(O)cc23)=C/C1=C1\C(=O)Nc2ccccc21 [violacein]
[1]
  reduction of progeny production compared to the negative control: about 50%
[2]
  repellency: 300%

## Abamectin
TSSM
  Number of eggs TSSM/leaflet day 90: 6.8
  Number of motile TSSM/leaflet day 90: 8.5
  Number of eggs TSSM/leaflet day 98: 17.0
  Number of eggs TSSM/leaflet day 105: 26.5
  Number of eggs TSSM/leaflet day 111: 12.0
  Number of eggs TSSM/leaflet day 118: 1.3
  Number of eggs TSSM/leaflet day 125: 2.3
  Number of eggs TSSM/leaflet day 132: 6.5
  Number of eggs TSSM/leaflet day 139: 3.5
  Number of eggs TSSM/leaflet day 146: 3.5
  Number of eggs TSSM/leaflet day 154: 41.3
  Number of motile TSSM/leaflet day 98: 4.5
  Number of motile TSSM/leaflet day 105: 6.3
  Number of motile TSSM/leaflet day 111: 5.3
  Number of motile TSSM/leaflet day 118: 0.5
  Number of motile TSSM/leaflet day 125: 0.5
  Number of motile TSSM/leaflet day 132: 3.0
  Number of motile TSSM/leaflet day 139: 6.3
  Number of motile TSSM/leaflet day 146: 6.8
  Number of motile TSSM/leaflet day 154: 15.3

## Oligo-(β-hydroxybutyric acid)
M. hapla nematodes
  immobility: 75%
